# Source: patent publication US20130345073A1, “USE OF ALPHA-2-MACROGLOBULIN FOR DETERMINING OSTEONECROSIS DISEASE STATUS AND FOR SCREENING THERAPEUTIC AGENTS FOR PREVENTING OR TREATING OSTEONECROSIS” (priority 2012, published 2013)
# Where two headings read alike, the source gives them in different places.
# Columns and labels:
# [1] = test system: A2M gene expression in human umbilical vein endothelial cells (HUVEC); assay: A2M gene expression in treated HUVEC cells (qPCR); type: cell-based; settings: for effect on A2M overexpression induced by dexamethasone: combined with dexamethasone, PD98059 20 μM, withaferin 1 μM (FIG. 4D)
# Text: HUVECs were purchased from Lonza (Walkersville, Md., USA) and cultured in endothelial basal medium (EBM-2media (Lonza) supplemented with microvascular additives (excluding hydrocortisone): human endothelial growth factor, 5% fetal bovine serum (FBS), vascular endothelial growth factor, human fibroblast growth factor type B, R3 insulin-like growth factor 1, ascorbic acid, heparin and the appropriate antibiotics gentamicin and amphotericin B (as per the supplier's protocol). HUVECs cells were cultured to near confluence (80%), trypsinized and seeded on 6 wells plates (10^5 cells/well). After 24 h incubation, cells were treated with dexamethasone (0.25 to 1 mM, Sigma-Aldrich, St-Louis, Mo., USA) for different time periods (between 4h to 48h). For experiments relating to the signaling pathways, different inhibitors were used: PD98059 (20 μM, Sigma) a MAPK inhibitor; withaferin (1 μM, Tocris, Bristol, UK), an NFkB PI3K inhibitor, and thrombin (1.5 U/ml; Calbiochem, San Diego, Calif., USA) an NFkB agonist. After incubation cells were harvested and RNA extracted using Trisol® (Invitrogen, Burlington, ON, Canada). RNA were then reverse transcribed using high capacity RNA to cDNA kit (Applied biosystems, Carlsbad, Calif., USA). A2M expression levels were then determined by qPCR using Taqman probes and master mix (Applied Biosystems)
# First, a dose response curve of HUVEC cells treated 48h using different concentration of Dex (dexamethasone) (0.1 mM to 1 mM) was generated. […] Then, a time response curve (4h to 24h) of HUVEC cells treated with 1 mM dexamethasone was generated. […] The effect of dexamethasone, PD and whitaferin on A2M expression of HUVEC cells was also determined.
# Fisher and WK rats = assay: Micro-computerized tomography scanning of femoral head cross-sections; type: in vivo, rat
# Protocol: At the conclusion of the 180 day experimental period, all prednisone and placebo animals were euthanized via brief isoflurane exposure followed by cardiac puncture. Immediately following euthanasia, both femurs in each animal were dissected, with care taken to preserve the integrity of the femoral cartilage during hip disarticulation. The femurs were then osteotomized at the mid-diaphysis and the proximal portion was immersed initially in 4% paraformaldehyde for 24 hours, washed with sterile phosphate buffered saline (PBS) for the following 48 hours, and then preserved in PBS at −5° Celsius.
# Micro computed-tomography (μCT) scanning was performed on each harvested femur using a Skyscan1172 instrument equipped with a 1.3 Mp camera (Skyscan, Kontich, Belgium). […] 2-dimensional serial cross sections were assembled into 3D reconstructions and analyzed using Skyscan™ software (CTAn version 2.0.0.1) supplied with the instrument. […]
# In the present example, an analysis of the epiphyseal trabecular bone adjacent to the subchondral plate was performed. […] This shape permitted the largest area of epiphyseal bone to be measured without artefact from the adjacent rodent growth plate or cortical cap. […]
# Four widely utilized morphometric indices measuring bone volume and bone connectivity were measured from the binarized 3-dimensional volume of interest. […] Total bone porosity (TBP) was also measured. […]
# [2] = test system: Fisher and Wistar Kyoto (WK) rats; settings: male, rat, in vivo, 5 months
# Wistar Kyoto rats = settings: male, rat, in vivo, 6 months
# Protocol: (§1) Experimental animals and their maintenance. Forty Wistar Kyoto (WKY) rats (ages 4 weeks old) were purchased from Charles River Laboratories (Pointe-Claire, QC, Canada). The rats were tagged and housed in plastic cages (2 to 4 animals per cage) under standard laboratory conditions with a 12-hour dark/12-hour light cycle, a constant temperature of 20° C., and humidity of 48%. Food and water were provided ad libitum with a standard rodent diet. The weight of the rats were followed before and after the implant of a prednisone pellet for the first 3 consecutive weeks and then every month until the end of the experiment. All experiments were conducted under an animal protocol approved by the McGill Animal Care Department.
# Slow-release prednisone pellets (Innovative Research of America, Sarasota Florida, USA) were implanted subcutaneously into 24 Wistar Kyoto rats (12 males and 12 females rats) at the age of 5 weeks. […]
# The rats were sacrificed with an overdose of ketamine/xylazine at the age of 30 weeks. […] Tissue samples were sectioned parasagitally with a rotary microtome at 4 to 5 microns thickness, stained with hematoxylin and eosin and evaluated by light microscopy.
# The tissue samples were analyzed in a blinded fashion by two experienced bone pathologists. […]
# [3] = test system: Fisher and Wistar Kyoto (WK) rats; assay: Alpha-2-Macroglobulin (A2M) level in the blood by rat A2M ELISA; type: in vivo
# Text: Slow-release prednisone pellets (Innovative Research of America, Sarasota Florida, USA) were implanted subcutaneously into 12 Wistar Kyoto rats (all males) and 12 Fisher rats (all males) at the age of 8-12 weeks. Each pellet was implanted underneath the skin on the lateral side of the neck by surgically making an incision and developing a pocket about 2 cm beyond the incision site. The pellet was placed in the pocket and the incision was sutured. Based on the manufacturer's instructions the pellet releases a constant dose of the drug subcutaneously. To maintain a constant dosage during the 6 month period of the experiment, second and third pellet implantations were performed using the same procedure at 2 and 3 months respectively. The average dose release from the pellet was equivalent to 1.5 mg/kg/day for the period of 6 months. The dose of corticosteroids and the duration of treatment were chosen based on clinical experience. For the control group, 6 age-matched Wistar Kyoto (all males) and 6 age-matched Fisher (all males) rats received placebo pellets (Innovative Research of America) introduced through the same surgical technique. All rats were weighed upon their entry into the animal facility and were then weighed on a weekly basis until the end of the experimental period. Serum glucose measurements were performed at 2 week intervals via saphenous venipuncture using a portable glucometer (ContourTM glucometer, Bayer). Furthermore, 1 ml of whole blood was collected from each animal once a month via sublingual venipuncture under general anesthesia following a previously described technique. Following venipuncture, the blood was transferred to standard EDTA tubes, centrifuged for 8 minutes at 3600 rpm and the serum was separated and initially stored at -20° Celsius. Monthly serum […] concentrations were determined using a Rat Alpha 2-Marcoglobulin Enzyme Linked Immunoassay (ELISA) (Kamiya Biomedical Company, Seattle, USA) according to the manufacturer's instructions. This measurement was performed by an author blinded to treatment allocation. Fisher and Wistar Kyoto (WK) rats received steroid/placebo treatment for 5 and 6 months, respectively and blood was collected monthly. The Alpha-2-Macroglobulin […]) level in the blood was detected using rat […] ELISA kit (Immunology Consultants Laboratory, USA). Rats were divided into groups based on the treatment as well as the results from histopathology and TUNEL evaluation. AVN(+) was judged to be either TUNEL (+) or (++), or AVN(-) by histopathology study on at least one hip. […] However, as shown on FIG. 3C, the […] level in the blood of steroid-treated Fisher rats (only those considered AVN(+)) increased at 2 months after steroid treatment, and they were consider AVN(+). […]
# [4] = test system: Fisher and Wistar Kyoto (WK) rats; settings: rat, in vivo
# Protocol: as §1, with “Eighteen Wistar” for “Experimental animals and their maintenance. Forty Wistar”, “(ages 12-16 weeks old) and eighteen Fisher (ages 12-16” for “(ages 4”
# Slow-release prednisone pellets (Innovative Research of America, Sarasota Florida, USA) were implanted subcutaneously into 12 Wistar Kyoto rats (all males) and 12 Fisher rats (all males) at the age of 8-12 weeks. Each pellet was implanted underneath the skin on the lateral side of the neck by surgically making an incision and developing a pocket about 2 cm beyond the incision site. The pellet was placed in the pocket and the incision was sutured. Based on the manufacturer's instructions the pellet releases a constant dose of the drug subcutaneously. To maintain a constant dosage during the 6 month period of the experiment, second and third pellet implantations were performed using the same procedure at 2 and 3 months respectively. The average dose release from the pellet was equivalent to 1.5 mg/kg/day for the period of 6 months. The dose of corticosteroids and the duration of treatment were chosen based on clinical experience. For the control group, 6 age-matched Wistar Kyoto (all males) and 6 age-matched Fisher (all males) rats received placebo pellets (Innovative Research of America) introduced through the same surgical technique.
# The rats were sacrificed with an overdose of ketamine/xylazine at the age of 32-36 weeks. Tissue samples were obtained from the proximal femur containing the femoral head. Some samples were put in RNALater™ (QIAGEN Inc., Mississauga, ON, Canada) for RNA extraction and some samples were fixed for histological examination. Bone samples were fixed in 10% neutral buffered formalin, then decalcified in 4% ethylenediamine tetraacetic acid (pH 7.2) (Sigma-Aldrich, St. Louis, Mo., USA). The specimens were processed routinely and embedded in paraffin. Tissue samples were sectioned parasagitally with a rotary microtome at 4 to 5 microns thickness, stained with hematoxylin and eosin and evaluated by light microscopy.
# The tissue samples were analyzed in a blinded fashion by two experienced bone pathologists. […] While the development of ON proceeds through various clinically identifiable stages, it was preferable for this study to detect early as well as the late stages of the condition. With this objective in mind, the criteria of Arlet [Arlet, 1993] was adopted namely degeneration, necrosis, and disappearance of marrow cells as well as the nuclear disappearance and hypochromasia of trabecular osteocytes as early signs of ON [Arlet, 1993]. Early signs of ON was also considered when apoptosis occurred in the osteocytes and osteoblasts. Positivity for apoptosis was defined by the authors as more than three osteocytes and/or osteoblasts recognized in a high magnification field based on previous studies [Weinstein et al, 2000; Shibahara et al., 2000].
# Terminal dexoynucleotidyl transferase (TdT) mediated deoxyuridine triphosphate biotin nick end labeling (TUNEL) was used to detect fragmented DNA known to be associated with apoptotic cell death. TUNEL assay on paraffin-embedded tissue sections was performed with the DeadEnd™ Colorimetric TUNEL System (Promega, Madison, Wis., USA) as recommended by the manufacturer. […]
compound,measurement,setting,value
"COc1cccc(-c2cc(=O)c3ccccc3o2)c1N [PD, PD98059]",effect on A2M overexpression induced by dexamethasone,[1]; HUVEC,repression of A2M gene expression
"C[C@]12C=CC(=O)C=C1CC[C@@H]1[C@@H]2C(=O)C[C@@]2(C)[C@H]1CC[C@]2(O)C(=O)CO [Prednisone, prednisone]",micro-CT findings of femoral head,Fisher and WK rats; Fisher rats following steroid administration (FIG. 5A),no articular erosion
same,"rats with subchondral porosity, small and erratic trabeculae and isotropic trabecular arrangement",Fisher and WK rats; steroid-treated WK rats (FIG. 5B),9 out of 12
same,Total TUNEL(++) hips,[2],7
same,Total TUNEL(−) hips,[2],2
same,number of hips AVN(+) TUNEL(−),[2],1
same,incidence of the disease (ON),Wistar Kyoto rats,up to 75%
same,A2M level in the blood,"[3]; Fisher rats, 5 months after the beginning of the steroid treatment (FIG. 3E)",declined
same,A2M level in the blood,"[3]; steroid-treated Fisher rats AVN(+), at 2 months after steroid treatment (FIG. 3C)",increased
same,time of peak A2M level in the blood after the beginning of the treatment,"[3]; steroid-treated WK rats, all AVN(+) (FIG. 3D)",3 month
same,A2M level in the blood,"[3]; steroid-treated WK rats, at least 6 months after the beginning of the treatment (FIG. 3E)",remained higher than placebo-treated group
same,Total TUNEL(++) hips,"[4]; male, Wistar Kyoto, 6 months",9
same,Total TUNEL(−) hips,"[4]; male, Wistar Kyoto, 6 months",1
same,number of hips AVN(+) TUNEL(−),"[4]; male, Wistar Kyoto, 6 months",1
same,number of hips AVN(−) TUNEL(+),"[4]; male, Wistar Kyoto, 6 months",1
same,number of hips AVN(−) TUNEL(++),"[4]; male, Wistar Kyoto, 6 months",2
same,apoptosis (TUNEL positive cells) in bilateral femora,[4],more profound
C[C@@H]1C[C@H]2[C@@H]3CCC4=CC(=O)C=C[C@]4(C)[C@@]3(F)[C@@H](O)C[C@]2(C)[C@@]1(O)C(=O)CO [dexamethasone],concentration of maximum effect on A2M expression,"[1]; HUVEC treated 48h, dose response 0.1 mM to 1 mM (FIG. 4A)",0.5 mM
same,time of maximum effect on A2M expression,"[1]; HUVEC, 1 mM dexamethasone, time response 4h to 24h (FIG. 4B)",24 h
"CC1=C(CO)C(=O)O[C@@H]([C@@H](C)[C@H]2CC[C@H]3[C@@H]4C[C@H]5O[C@]56[C@@H](O)C=CC(=O)[C@]6(C)[C@H]4CC[C@]23C)C1 [whitaferin, withaferin]",effect on A2M overexpression induced by dexamethasone,[1]; HUVEC,repression of A2M gene expression
